# What was measured:
# [1] = Gravimetric solubility of diester in methanol (saturated solution); format: physicochemical
# Procedure: The solubility of dimethyl-5-nitrophthalate (“diester”) in methanol was determined through the normal boiling of methanol, and presented in the following table:
# Using glass pressure test tubes immersed in boiling water, an additional point for the solubility of diester at 100° C. was measured to be about 58 wt % diester.
# Generally, the solubility was determined gravimetrically. A dilute slurry of diester and methanol was heated to a desired temperature. As needed, more diester solids were added to maintain a dilute slurry. The slurry was heated to a known temperature and stirred for approximately 15-30 minutes to assure the diester solids were equilibrated and the solution was saturated. Then, the stirring was stopped and the diester solids were allowed to settle. A sample of the supernatant liquid was obtained, the liquid was evaporated and the weight of the residual diester was measured. The weight of the residual diester solid was used to calculate the solubility of the diester solid in the methanol. This procedure was repeated for several different temperatures. Then, from the highest temperature, the procedure was repeated except the slurry was cooled to each sampling point and methanol was added instead of diester solids as necessary to maintain a dilute slurry. The difference in the solubility data sets between the heating data set and the cooling data set is an indication of how well equilibrium was obtained.
# [2] = Activity coefficient of diester in saturated methanol solution, transformed from the solubility data; format: physicochemical; parameters: key: γ = ideal mole-fraction solubility / actual mole-fraction solubility
# Source text: Solubility data can be compared to the ideal solubility. Two component solubility data (solute and solvent) at various temperatures can be easily calculated as a mole fraction of the solute in solution. The ratio of the mole fraction ideal solubility, xsolute ideal (calculated at the same temperature as the solubility data point) to each mole fraction solubility data point, xsolute actual is the activity coefficient, γsolute. These relationships are expressed mathematically, per equation (2)
# In order to solve equation (3) for the activity coefficient, three experimental values are necessary: (i) the melting point of the solute, (ii) the heat of fusion of the solute in cal/g·mol and (iii) at least one value for the solubility of the specific solute in a specific solvent. Assuming the heat of fusion of the solute is constant over the range of temperatures, the relationship in equation (3) allows the mathematical transformation of the temperature and solubility data into an activity coefficient for the solute at each temperature. The terms in equation (3) are defined as follows: γsolute is the activity coefficient of the solute, xsolute is the mole fraction of the solute at a given temperature, T, in K; −ΔH^Fsolute is the heat of fusion in cal/g·mol of the solute, R is the ideal gas constant in cal/K·mol, T is the temperature of a given value for xsolute in K; and Tm(solute) is the melting temperature of the solute in K.
# To interpret the solubility information, additional physical properties of diester were measured. The melting point was 124° C. (123-125° C.). The heat of fusion was 7422 cal/g·mole.
# The solubility of diester, being a non-electrolyte, would obey the following thermodynamic relationship.
# This relationship allows the weight % solubility versus temperature data to be mathematically transformed into an activity coefficient versus temperature data. The corresponding activity coefficient for each solubility data point is as follows: […]
smiles,measurement,setting,value
"COC(=O)c1cc(C(=O)OC)cc([N+](=O)[O-])c1 [Diester, dimethyl-5-nitro-isophthalate]",solubility,[1]; 25° C.,about 1 wt. %
same,wt % Diester (solubility in methanol),"[1]; methanol, 25.5 C",1.0% wt %
same,wt % Diester (solubility in methanol),"[1]; methanol, 31.1 C",1.2% wt %
same,wt % Diester (solubility in methanol),"[1]; methanol, 34.1 C",1.4% wt %
same,wt % Diester (solubility in methanol),"[1]; methanol, 34.6 C",1.5% wt %
same,wt % Diester (solubility in methanol),"[1]; methanol, 39.6 C",1.9% wt %
same,wt % Diester (solubility in methanol),"[1]; methanol, 44.0 C",2.3% wt %
same,wt % Diester (solubility in methanol),"[1]; methanol, 44.3 C",2.3% wt %
same,wt % Diester (solubility in methanol),"[1]; methanol, 52.4 C",3.5% wt %
same,wt % Diester (solubility in methanol),"[1]; methanol, 54.1 C",3.7% wt %
same,wt % Diester (solubility in methanol),"[1]; methanol, 61.2 C",5.7% wt %
same,wt % Diester (solubility in methanol),"[1]; methanol, 65.3 C",7.0% wt %
same,wt % Diester (solubility in methanol),"[1]; methanol, 65.4 C",7.0% wt %
same,wt % Diester (solubility in methanol),"[1]; methanol, 100 C, glass pressure test tubes in boiling water",58.0% wt %
same,wt % Diester (solubility in methanol),"[1]; methanol, 100 C, glass pressure test tubes in boiling water, listed as diester",about 58 wt %
same,wt % Diester (solubility in methanol),"[1]; methanol, 100 C, glass pressure test tubes in boiling water, listed as dimethyl-5-nitro-isophthalate",about 58 wt %
same,maximum solubility obtained below the normal boiling point of methanol,"[1]; methanol, below normal boiling point",7 wt. %
same,concentration of diester solutions obtained,"[1]; methanol, temperature above 100° C.",greater than 70 wt. %
same,Activ Coef,[2]; 25.5 C,36.3
same,Activ Coef,[2]; 31.1 C,33.7
same,Activ Coef,[2]; 34.1 C,32.4
same,Activ Coef,[2]; 34.6 C,32.1
same,Activ Coef,[2]; 39.6 C,30.1
same,Activ Coef,[2]; 44.0 C,28.4
same,Activ Coef,[2]; 44.3 C,28.3
same,Activ Coef,[2]; 52.4 C,25.3
same,Activ Coef,[2]; 54.1 C,24.7
same,Activ Coef,[2]; 61.2 C,21.9
same,Activ Coef,[2]; 65.3 C,20.4
same,Activ Coef,[2]; 65.4 C,20.5
same,Activ Coef,[2]; 100.0 C,3.5

# — US20080188680A1, “Process Improvement Using Solubility Characteristics” (priority 2005, published 2008)
